The target in experiment [1] is T1, His-tagged cytoplasmic domain of EGFR (Homo sapiens, UniProt P00533).
T1 construct: containing the EGFR cDNA encoding amino acids 645 - 1186 preceded by Met-Ala-(His)6; made in house; host or cells: Sf9 cells, recombinant baculovirus vHcEGFR52
Nature of the experiment: Inhibition of Epidermal Growth Factor Receptor Kinase (EGF-R) using recombinant enzyme.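 Also: radiometric kinase assay measuring radiolabeled phosphate transfer from ATP onto the peptide tyrosine by scintillation counting, control is reaction without compound, background subtracted, IC50 from dose-response curve.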 To be noted: recombinant enzyme; RR-SRC peptide; average of the number of tests; read-out: IC50. The format is biochemical.
Procedure: The enzyme used in this assay is the His-tagged cytoplasmic domain of EGFR.
Compounds to be evaluated were made into 10 mg/mL stock solutions in 100% dimethylsulfoxide (DMSO). Prior to experiment, stock solutions were diluted to 500 µM with 100% DMSO and then serially diluted to the desired concentration with HEPES buffer (30 mM HEPES pH 7.4).
For the enzyme reaction, 10 µL of each inhibitor (at various concentrations) were added to each well of a 96-well plate. […] This was allowed to sit for 10 min on ice and was followed by the addition of 5 µl peptide (80 µM final conc.), 10µl of 4X Buffer (Table A), 0.25 µL ^33P-ATP and 12 µL H2O. The reaction was allowed to run for 90 min at room temperature and was followed by spotting the entire volume on to precut P81 filter papers. The filter discs were washed 2X with 0.5% phosphoric acid and radioactivity was measured using a liquid scintillation counter.
The % inhibition of the test compound was determined for at least three different concentrations and the IC50 value was evaluated from the dose response curve. […] CPM(control) is in units of counts per minute and was a number expressing the amount of radiolabeled ATP (g-33P) incorporated into the RR-SRC peptide substrate by the enzyme after 90 minutes at room temperature in the absence of test compound as measured by liquid scintillation counting. The CPM values were corrected for the background counts produced by ATP in the absence of the enzymatic reaction. The IC50 values reported in TABLE 2 are averages of the number of tests conducted.

The next experiment has as its system SW620. Nature of the experiment: Inhibition of cancer cell growth as measured by cell number, SW620.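 As to all read-outs here: SW620 was included as a cell line with little or no EGFR or HER2/neu expression, in contrast to receptor-overexpressing lines.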 The format is cell-based, human. The conditions noted are these: for IC50: Homo sapiens, SW-620, 48 h, Table 8.
In another experiment the test system is A431. Kind of experiment: Inhibition of cancer cell growth as measured by cell number, A431.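 As to all read-outs here: human A431 line, picked because it overexpresses epidermal growth factor receptor (EGFR).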 The format is cell-based, human. To be noted: for IC50: Homo sapiens, A-431, 48 h, Table 8.
In a further experiment the test system is SKBR3. Nature of the experiment: Inhibition of cancer cell growth as measured by cell number, SKBR3.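 As to all read-outs here: SK-BR-3 cells were selected as a line overexpressing HER2/neu.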 Format: cell-based, human. The conditions noted are these: for IC50: Homo sapiens, Table 8.
For experiment [2], the target named is recombinant human MEK 1 (MAPKK) and recombinant human ERK2 (MAPK). Kind of experiment: Mitogen Activated Protein Kinase (MAPK) assay, two component coupled MEK 1 / ERK2.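 Also: MEK 1-activated ERK2 phosphorylates MBP or Myc peptide with 33P-ATP, filter capture and scintillation counting, inhibitor preincubated with ERK2 30 min at 0 °C, inhibition relative to uninhibited control.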 Format: biochemical. The conditions noted are these: separate entries for the same compound = evaluated more than one time.
Setting [3] is: cell number, Sulforhodamine B, 48 hours exposure, read-out: IC50 SW620.
The mark [4] stands for this setting: cell number, Sulforhodamine B, 48 hours exposure, read-out: IC50 A431.
[5] abbreviates: SK-BR-3, cell number, Sulforhodamine B, 48 hours exposure, read-out: IC50 SKBR3.
[6] abbreviates: read-out: IC50 SW620, cell number, Sulforhodamine B, 48 hours exposure.
[7] abbreviates: read-out: IC50 A431, cell number, Sulforhodamine B, 48 hours exposure.
Setting [8] is: SK-BR-3, 48 h, read-out: IC50 SKBR3, cell number, Sulforhodamine B, 48 hours exposure.

pIC50: −log10 of the molar value. In brackets after ≈: the same amount, converted by molar mass. Where two headings read alike, the source gives them in different places.

T1 sequence (P00533 669-1210): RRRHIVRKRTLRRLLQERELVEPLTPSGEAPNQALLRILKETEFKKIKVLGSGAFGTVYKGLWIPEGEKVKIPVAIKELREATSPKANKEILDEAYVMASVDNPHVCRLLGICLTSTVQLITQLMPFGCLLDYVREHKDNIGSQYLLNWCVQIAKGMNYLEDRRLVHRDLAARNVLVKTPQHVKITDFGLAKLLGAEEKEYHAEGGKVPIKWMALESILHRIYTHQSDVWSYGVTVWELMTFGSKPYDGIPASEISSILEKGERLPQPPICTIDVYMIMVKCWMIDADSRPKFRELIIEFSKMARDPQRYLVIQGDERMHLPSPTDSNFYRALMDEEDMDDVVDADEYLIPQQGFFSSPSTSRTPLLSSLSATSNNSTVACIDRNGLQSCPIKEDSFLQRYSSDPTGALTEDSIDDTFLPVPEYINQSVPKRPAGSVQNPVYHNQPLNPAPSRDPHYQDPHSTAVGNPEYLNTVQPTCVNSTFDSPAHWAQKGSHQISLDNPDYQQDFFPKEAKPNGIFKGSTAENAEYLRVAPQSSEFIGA
Source text for A431: (§1) The cell lines were chosen since they overexpressed epidermal growth factor receptor (EGFR) (i.e. A431) or HER2/neu (SKBR3), or had little to no expression of the these receptors (SW620, LOX, MCF7).
Source text for SKBR3: as §1
Source text for SW620: as §1

The term pIC50 denotes the negative decadic logarithm of the IC50, by convention in mol/L. The IC50 is the concentration that inhibits the measured activity by half. Regarding `CCOc1cc2ncc(C#N)c(NCc3ccc(OC)c(OC)c3)c2cc1OCC` [Example 63, 4-(3,4-Dimethoxyphenylmethylamino)-6,7-diethoxy-3-quinolinecarbonitrile], the results for the pIC50 in experiment [1] and in experiment [2] were at most 5.00 and below 4.00, respectively. Besides, the IC50 with SW620 (setting [3]) was determined as 0.208 µg/mL (≈ 0.51 µM); in the experiment with A431 (setting [4]), 0.095 µg/mL (≈ 0.233 µM); in the experiment on SKBR3 (setting [5]) it was 0.144 µg/mL (≈ 0.353 µM).
As for `CNCC=CC(=O)Nc1ccc2ncc(C#N)c(Nc3cccc(Br)c3)c2c1` [Example 101, 4-Methylamino-but-2-enoic acid [4-(3-bromophenylamino)-3-cyano-quinolin-6-yl]-amide], the pIC50 was 7.00 in experiment [1] and 4.70 in experiment [2]. In addition, the IC50 in the experiment on SW620 (setting [3]), with A431 (setting [4]) and in the experiment with SKBR3 (setting [5]) was above 10 µg/mL throughout.
Take `COc1cccc(Nc2c(C#N)cnc3ccc(NC(=O)C#CCN4CCCCC4)cc23)c1` [Example 140, N-{3-cyano-4-[(3-methoxyphenyl)amino]-6-quinolinyl}-4-piperidino-2-butynamide]: the results for the pIC50 in experiment [1] and in experiment [2] were 9.22 and below 4.00, respectively. In addition, the figures for the IC50 with SW620 (setting [6]), in the experiment with A431 (setting [7]) and in the experiment with SKBR3 (setting [8]) were 0.1 µg/mL (≈ 0.228 µM), 0.02 µg/mL (≈ 0.0455 µM) and 0.02 µg/mL (≈ 0.0455 µM), respectively.
In the case of `CCN(CC)CC=CC(=O)Nc1ccc2ncc(C#N)c(Nc3ccc(F)c(Cl)c3)c2c1` [Example 146, N-{4-[(3-Chloro-4-fluorophenyl)amino]-3-cyano-6-quinoliny}-4-diethylamino-2-butenamide], the pIC50 was 7.52 in experiment [1] and 5.22 in experiment [2]. In addition, the IC50 with SW620 (setting [3]) was determined as 0.6 µg/mL (≈ 1.33 µM); with A431 (setting [4]), 0.03 µg/mL (≈ 0.0664 µM); with SKBR3 (setting [5]), 0.03 µg/mL (≈ 0.0664 µM).
`CC#CC(=O)Nc1ccc2ncc(C#N)c(Nc3ccc(Sc4ccccc4)c(Cl)c3)c2c1` [Example 157]: the pIC50 in experiment [1] is 7.35; in experiment [2] it was 4.05. The IC50 came to 4.17 µg/mL (≈ 8.89 µM) in the experiment on SW620 (setting [6]), 3.26 µg/mL (≈ 6.95 µM) with A431 (setting [7]) and 2.6 µg/mL (≈ 5.55 µM) with SKBR3 (setting [8]).
For `C=CC(=O)Nc1ccc2ncc(C#N)c(Nc3cccc(C#N)c3)c2c1` [Example 160, N-[3-Cyano-4-[(3-cyanophenyl)amino]-6-quinolinyl}-2-propenamide], the negative logarithm of the IC50 (pIC50) was 8.70 in experiment [1] and 4.52 in experiment [2]. For the same molecule, the IC50 stood at 2.3 µg/mL (≈ 6.78 µM) with SW620 (setting [6]), 0.2 µg/mL (≈ 0.589 µM) in the experiment with A431 (setting [7]) and 0.5 µg/mL (≈ 1.47 µM) with SKBR3 (setting [8]).
For `N#Cc1cccc(Nc2c(C#N)cnc3ccc(NC(=O)C#CCN4CCCCC4)cc23)c1` [Example 161, N-{3-Cyano-4-[(3-cyanophenyl)amino]-6-quinolinyl}-4-piperidino-2-butynamide], the figures for the pIC50 in experiment [1] and in experiment [2] were 9.46 and 4.26, respectively. Also, the IC50 in the experiment on SW620 (setting [6]) was 0.2 µg/mL (≈ 0.46 µM); in the experiment on A431 (setting [7]), 0.1 µg/mL (≈ 0.23 µM); in the experiment on SKBR3 (setting [8]), 0.04 µg/mL (≈ 0.0921 µM).
The corresponding values for `C#Cc1cccc(Nc2c(C#N)cnc3ccc(NC(=O)C#CCN4CCCCC4)cc23)c1` [Example 166, N-{3-cyano-4-[(3-ethynylphenyl)amino]-6-quinolinyl)-4-piperidino-2-butynamide] are 7.70, below 4.00, 0.04 µg/mL (≈ 0.0923 µM), 0.02 µg/mL (≈ 0.0461 µM) and 0.02 µg/mL (≈ 0.0461 µM).
For `CCCN(CC#CC(=O)Nc1ccc2ncc(C#N)c(Nc3cccc(Br)c3)c2c1)CCC` [Example 170], the figures for the pIC50 in experiment [1] and in experiment [2] were 7.22 and below 4.00, respectively. Moreover, the “IC50 SW620” value in the experiment with SW620 came out at 0.1 µg/mL (≈ 0.198 µM). The “IC50 A431” value in the experiment with A431 worked out at 0.03 µg/mL (≈ 0.0595 µM). Further, the “IC50 SKBR3” value in the experiment on SKBR3 was found to be 0.03 µg/mL (≈ 0.0595 µM).
With `CN(C)CC=CC(=O)Nc1ccc2ncc(C#N)c(Nc3ccc(F)c(Br)c3)c2c1` [Example 172, N-{4-[(3-Bromo-4-fluorophenyl)amino]-3-cyano-6-quinolinyl} -4-dimethylamino-2-butenamide], the pIC50 in experiment [1] was 8.30; in experiment [2] it was 4.05. Besides, the IC50 in the experiment with SW620 (setting [3]) amounted to 1.59 µg/mL (≈ 3.4 µM); in the experiment with A431 (setting [4]), 0.255 µg/mL (≈ 0.544 µM); in the experiment with SKBR3 (setting [5]), 0.067 µg/mL (≈ 0.143 µM).
